Test results: patent US20240294531A1, “COVALENT HETEROCYCLES AND USES THEREOF” (Kumquat Biosciences Inc., priority 2022, published 2024)

These compounds were tested against BTK C481S protein (Homo sapiens (Human), UniProt Q06187, C481S) (assay: BTK C481S HTRF displacement assay). Conditions: 1-hour incubation.
Chain of BTK C481S protein (Q06187 2-659 C481S): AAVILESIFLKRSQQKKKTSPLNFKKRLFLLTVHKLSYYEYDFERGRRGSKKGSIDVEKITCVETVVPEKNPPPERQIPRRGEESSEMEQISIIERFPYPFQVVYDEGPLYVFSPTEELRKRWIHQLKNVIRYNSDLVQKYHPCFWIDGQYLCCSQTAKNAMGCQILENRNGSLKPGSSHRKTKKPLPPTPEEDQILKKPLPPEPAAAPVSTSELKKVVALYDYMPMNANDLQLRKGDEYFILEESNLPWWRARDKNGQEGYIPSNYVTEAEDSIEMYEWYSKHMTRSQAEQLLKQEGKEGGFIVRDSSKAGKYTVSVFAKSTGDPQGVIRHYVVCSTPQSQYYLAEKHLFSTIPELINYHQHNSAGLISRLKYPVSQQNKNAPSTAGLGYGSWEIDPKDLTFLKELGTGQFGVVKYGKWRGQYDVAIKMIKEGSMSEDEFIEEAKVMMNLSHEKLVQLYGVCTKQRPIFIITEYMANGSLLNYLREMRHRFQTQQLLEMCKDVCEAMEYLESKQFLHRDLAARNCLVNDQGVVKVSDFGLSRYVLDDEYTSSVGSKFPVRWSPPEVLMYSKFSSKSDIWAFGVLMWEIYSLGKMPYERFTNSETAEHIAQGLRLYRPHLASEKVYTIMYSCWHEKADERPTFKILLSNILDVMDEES
Type: binding
Experimental: (§1) The ability of a compound to bind BTK wildtype or BTK C481S proteins was measured using an HTRF displacement assay. The assay measures the ability of a compound to displace a tracer ligand bound to the active site of BTK wildtype or BTK C481 S proteins.
(§2) Test compounds were prepared as 10 mM stock solutions in DMSO (Fisher cat #BP231-100). Compounds to be assayed were dispensed using an Echo 650 acoustic dispenser (Beckman Coulter) on a 384 well plate in 6 doses applying four-fold dilutions from the highest concentration of 5 μM. N-terminal GST-tagged recombinant full-length BTK wildtype protein and BTK C481 S protein 2-659 were purchased from Carna Biosciences, Inc (Kobe, Japan). BTK wildtype or BTK C481S protein was separately incubated with compound in assay buffer containing kinase tracer 239 (Thermo Fisher) and Mab anti GST-Th (PerkinElmer). After a 1-hour incubation at room temperature, the HTRF signal was measured using SPARK plate reader (Tecan) using the TR fluorescence mode. The HTRF ratio is calculated for DMSO, no protein control and compound samples using the following equation: HTRF ratio=Emmision665/Emmision620×10^4. The signal for the no protein control samples was used to subtract background noise from the DMSO and compound samples. Background subtracted HTRF ratios are used to calculate the percent inhibition, where DMSO controls are set to 0 percent inhibition. The percent inhibition is plotted as a function of compound concentration and IC50 values were calculated from a four-parameter logistic fit in Prism v9.4 (GraphPad), where the bottom and top are constrained to 0 and 100, respectively.
The same assay was used to measure the activity of selected compounds of the formula TBM-L-hydrogen. Using the IC50 value observed for a given reversible test compound, the KI of the test compound can be assessed using the formula KI=IC50/(1+([Tracer]/Kd)), wherein the tracer concentration in the assay [Tracer] is 50 nM and the tracer Kd for BTK C481S is 54 nM.
In the case of `COc1ccc(F)cc1C(=O)NCc1ccc(-c2nn([C@@H]3CCC[C@@H](N(C)C(=O)n4cncn4)C3)c(N)c2C(N)=O)cc1` (relative stereo) [Compound 194, N-((1R,3R)-3-(5-amino-4-carbamoyl-3-(4-((5-fluoro-2-methoxybenzamido)methyl)phenyl)-1H-pyrazol-1-yl)cyclohexyl)-N-methyl-1H-1,2,4-triazole-1-carboxamide], the IC50 is reported as at most 1 µM.
For `COc1ccc(F)cc1C(=O)NCc1ccc(-c2nn([C@@H]3CCC[C@H](N(C)C(=O)n4cncn4)C3)c(N)c2C(N)=O)cc1` (relative stereo) [Compound 284, N-((1S,3R)-3-(5-amino-4-carbamoyl-3-(4-((5-fluoro-2-methoxy-benzamido)methyl)phenyl)-1H-pyrazol-1-yl)cyclohexyl)-N-methyl-1H-1,2,4-triazole-1-carboxamide], the IC50 was at most 1 µM.
Work on `CC1CC(n2nc(-c3ccc(Oc4ccccc4)cc3)c3c(N)ncnc32)CC(C)N1C(=O)n1cncn1` (centres unmarked) [Compound 101, (4-(4-amino-3-(4-phenoxyphenyl)-1H-pyrazolo[3,4-d]pyrimidin-1-yl)-2,6-dimethylpiperidin-1-yl)(1H-1,2,4-triazol-1-yl)methanone] yielded an IC50 of at most 1 µM.
Work on `COc1nn(C)cc1Nc1nc(N2CCCC3(CCN3C(=O)n3cncn3)C2)nc2c1ncn2C` (centres unmarked) [Compound 102, (6-(6-((3-methoxy-1-methyl-1H-pyrazol-4-yl)amino)-9-methyl-9H-purin-2-yl)-1,6-diazaspiro[3.5]nonan-1-yl) (1H-1,2,4-triazol-1-yl)methanone] yielded an IC50 of over 1 µM.
With `CN(C(=O)n1cncn1)C1CCC(n2nc(-c3ccc(Oc4ccccc4)cc3)c3c(N)ncnc32)C1` (centres unmarked) [Compound 116, N-(3-(4-amino-3-(4-phenoxyphenyl)-1H-pyrazolo[3,4-d]pyrimidin-1-yl)cyclopentyl)-N-methyl-1H-1,2,4-triazole-1-carboxamide] the IC50 was at most 1 µM.
For `CN(C(=O)n1cncn1)C1CCCCC(n2nc(-c3ccc(Oc4ccccc4)cc3)c3c(N)ncnc32)C1` (centres unmarked) [Compound 118, N-(3-(4-amino-3-(4-phenoxyphenyl)-1H-pyrazolo[3,4-d]pyrimidin-1-yl)cycloheptyl)-N-methyl-1H-1,2,4-triazole-1-carboxamide], the IC50 was at most 1 µM.
Compound `COc1ccc(F)cc1C(=O)NCc1ccc(-c2nn(C3CCCCC(N(C)C(=O)n4cncn4)C3)c3ncnc(N)c23)cc1` (centres unmarked) [Compound 147, N-(3-(4-amino-3-(4-((5-fluoro-2-methoxybenzamido)methyl)phenyl)-1H-pyrazolo[3,4-d]pyrimidin-1-yl)cycloheptyl)-N-methyl-1H-1,2,4-triazole-1-carboxamide] has an IC50 of at most 1 µM.
With `CN(C(=O)n1cncn1)C1CCCC(n2nc(-c3ccc(Oc4ccccc4)cc3)c3c(N)ncnc32)C1` (centres unmarked) [Compound 160, N-(3-(4-amino-3-(4-phenoxyphenyl)-1H-pyrazolo[3,4-d]pyrimidin-1-yl)cyclohexyl)-N-methyl-1H-1,2,4-triazole-1-carboxamide] the IC50 was at most 1 µM.
With `COc1ccc(F)cc1C(=O)NCc1ccc(-c2nn(C(C)CC3CCCN3C(=O)n3cncn3)c3ncnc(N)c23)cc1` (centres unmarked) [Compound 166, N-(4-(1-(1-(1-(1H-1,2,4-triazole-1-carbonyl)pyrrolidin-2-yl)propan-2-yl)-4-amino-1H-pyrazolo[3,4-d]pyrimidin-3-yl)benzyl)-5-fluoro-2-methoxybenzamide] the IC50 was at most 1 µM.
`COc1ccc(F)cc1C(=O)NCc1ccc(-c2nn(C3CCCC(N(C)C(=O)n4cncn4)C3)c3ncnc(N)c23)cc1` (centres unmarked) [Compound 177, N-(3-(4-amino-3-(4-((5-fluoro-2-methoxybenzamido)methyl)phenyl)-1H-pyrazolo[3,4-d]pyrimidin-1-yl)cyclohexyl)-N-methyl-1H-1,2,4-triazole-1-carboxamide] gave an IC50 of at most 1 µM.
`NC(=O)c1c(-c2ccc(Oc3ccccc3)cc2)nn2c1NCCC2C1CCN1C(=O)n1cncn1` (centres unmarked) [Compound 180, 7-(1-(1H-1,2,4-triazole-1-carbonyl)azetidin-2-yl)-2-(4-phenoxy-phenyl)-4,5,6,7-tetrahydropyrazolo [1,5-a]pyrimidine-3-carboxamide] gave an IC50 of over 1 µM.
`COc1ccc(F)cc1C(=O)NCc1ccc(-c2nn(C(C)C(C)CN(C)C(=O)n3cncn3)c3ncnc(N)c23)cc1` (centres unmarked) [Compound 189, N-(3-(4-amino-3-(4-((5-fluoro-2-methoxybenzamido)methyl)phenyl)-1H-pyrazolo[3,4-d]pyrimidin-1-yl)-2-methylbutyl)-N-methyl-1H-1,2,4-triazole-1-carboxamide] gave an IC50 of at most 1 µM.
In the case of `CN(C(=O)n1cncn1)C1CCC(n2nc(-c3ccc(Oc4ccccc4)cc3)c(C(N)=O)c2N)C1` (centres unmarked) [Compound 302, N-(3-(5-amino-4-carbamoyl-3-(4-phenoxyphenyl)-1H-pyrazol-1-yl)cyclopentyl)-N-methyl-1H-1,2,4-triazole-1-carboxamide], the IC50 is reported as at most 1 µM.

Same assay, conditions: TBM-L-hydrogen compounds; KI=IC50/(1+([Tracer]/Kd)), [Tracer] 50 nM, Kd 54 nM
Work on `COc1ccc(F)cc1C(=O)NCc1ccc(-c2nn(CCNC3CC3)c3ncnc(N)c23)cc1` [reference compound] yielded a Ki of under 0.66 µM.
For `CCNCC1CCNc2c(C(N)=O)c(-c3ccc(Oc4ccccc4)cc3)nn21` (centres unmarked) [reference compound], the Ki was under 1 µM.
`COc1ccc(C)cc1C(=O)NCc1ccc(-c2nn(CC3CCCCN3)c3ncnc(N)c23)cc1` (centres unmarked) [reference compound] was tested, and the Ki was under 0.6 µM.

Each compound was assayed against BTK wildtype protein (Homo sapiens (Human), UniProt Q06187) (assay: BTK wildtype HTRF displacement assay). Conditions: 1-hour incubation; read-out: BTK (wt) IC50.
Chain of BTK wildtype protein (Q06187 2-659): as the sequence (Q06187 2-659 C481S) above, with S480C counted along it
Type: binding
Experimental: as §1, §2
Compound `COc1ccc(F)cc1C(=O)NCc1ccc(-c2nn([C@@H]3CCC[C@@H](N(C)C(=O)n4cncn4)C3)c(N)c2C(N)=O)cc1` (relative stereo) [Compound 194, N-((1R,3R)-3-(5-amino-4-carbamoyl-3-(4-((5-fluoro-2-methoxybenzamido)methyl)phenyl)-1H-pyrazol-1-yl)cyclohexyl)-N-methyl-1H-1,2,4-triazole-1-carboxamide] has an IC50 of at most 1 µM.
Work on `COc1ccc(F)cc1C(=O)NCc1ccc(-c2nn([C@@H]3CCC[C@H](N(C)C(=O)n4cncn4)C3)c(N)c2C(N)=O)cc1` (relative stereo) [Compound 284, N-((1S,3R)-3-(5-amino-4-carbamoyl-3-(4-((5-fluoro-2-methoxy-benzamido)methyl)phenyl)-1H-pyrazol-1-yl)cyclohexyl)-N-methyl-1H-1,2,4-triazole-1-carboxamide] yielded an IC50 of at most 1 µM.
For `CC1CC(n2nc(-c3ccc(Oc4ccccc4)cc3)c3c(N)ncnc32)CC(C)N1C(=O)n1cncn1` (centres unmarked) [Compound 101, (4-(4-amino-3-(4-phenoxyphenyl)-1H-pyrazolo[3,4-d]pyrimidin-1-yl)-2,6-dimethylpiperidin-1-yl)(1H-1,2,4-triazol-1-yl)methanone], the IC50 was at most 1 µM.
In the case of `COc1nn(C)cc1Nc1nc(N2CCCC3(CCN3C(=O)n3cncn3)C2)nc2c1ncn2C` (centres unmarked) [Compound 102, (6-(6-((3-methoxy-1-methyl-1H-pyrazol-4-yl)amino)-9-methyl-9H-purin-2-yl)-1,6-diazaspiro[3.5]nonan-1-yl) (1H-1,2,4-triazol-1-yl)methanone], the IC50 is reported as over 1 µM.
Work on `COc1ccc(F)cc1C(=O)NCc1ccc(-c2nn(C3CCC(N(C)C(=O)n4cncn4)C3)c(N)c2C(N)=O)cc1` (centres unmarked) [Compound 201, N-(3-(5-amino-4-carbamoyl-3-(4-((5-fluoro-2-methoxybenzamido)methyl)phenyl)-1H-pyrazol-1-yl)cyclopentyl)-N-methyl-1H-1,2,4-triazole-1-carboxamide] yielded an IC50 of at most 1 µM.
In the case of `CN(C(=O)n1cncn1)C1CCC(n2nc(-c3ccc(Oc4ccccc4)cc3)c3c(N)ncnc32)C1` (centres unmarked) [Compound 216, N-(3-(4-amino-3-(4-phenoxyphenyl)-1H-pyrazolo[3,4-d]pyrimidin-1-yl)cyclopentyl)-N-methyl-1H-1,2,4-triazole-1-carboxamide], the IC50 is reported as at most 1 µM.
For `CN(C(=O)n1cncn1)C1CCCC(n2nc(-c3ccc(Oc4ccccc4)cc3)c3c(N)ncnc32)C1` (centres unmarked) [Compound 233, N-(3-(4-amino-3-(4-phenoxyphenyl)-1H-pyrazolo[3,4-d]pyrimidin-1-yl)cyclohexyl)-N-methyl-1H-1,2,4-triazole-1-carboxamide], the IC50 was at most 1 µM.
For `COc1ccc(F)cc1C(=O)NCc1ccc(-c2nn(C3CCCC4(CCN4C(=O)n4cncn4)C3)c3ncnc(N)c23)cc1` (centres unmarked) [Compound 236, N-(4-(1-(1-(1H-1,2,4-triazole-1-carbonyl)-1-azaspiro[3.5]nonan-6-yl)-4-amino-1H-pyrazolo[3,4-d]pyrimidin-3-yl)benzyl)-5-fluoro-2-methoxybenzamide], the IC50 was at most 1 µM.
`COc1ccc(F)cc1C(=O)NCc1ccc(-c2nn(C3CCCCC(N(C)C(=O)n4cncn4)C3)c3ncnc(N)c23)cc1` (centres unmarked) [Compound 278, N-(3-(4-amino-3-(4-((5-fluoro-2-methoxybenzamido)methyl)phenyl)-1H-pyrazolo[3,4-d]pyrimidin-1-yl)cycloheptyl)-N-methyl-1H-1,2,4-triazole-1-carboxamide] gave an IC50 of at most 1 µM.
For `NC(=O)c1c(-c2ccc(Oc3ccccc3)cc2)nn2c1NCCC2C1CCCN(C(=O)n2cncn2)C1` (centres unmarked) [Compound 283, 7-(1-(1H-1,2,4-triazole-1-carbonyl)piperidin-3-yl)-2-(4-phenoxyphenyl)-4,5,6,7-tetrahydropyrazolo[1,5-a] pyrimidine-3-carboxamide], the IC50 was over 1 µM.
Work on `COc1ccc(F)cc1C(=O)NCc1ccc(-c2nn(C3CCCC(N(C)C(=O)n4cncn4)C3)c3ncnc(N)c23)cc1` (centres unmarked) [Compound 290, N-(3-(4-amino-3-(4-((5-fluoro-2-methoxybenzamido)methyl)phenyl)-1H-pyrazolo[3,4-d]pyrimidin-1-yl)cyclohexyl)-N-methyl-1H-1,2,4-triazole-1-carboxamide] yielded an IC50 of at most 1 µM.
With `CN(C(=O)n1cncn1)C1CCC(n2nc(-c3ccc(Oc4ccccc4)cc3)c(C(N)=O)c2N)C1` (centres unmarked) [Compound 295, N-(3-(5-amino-4-carbamoyl-3-(4-phenoxyphenyl)-1H-pyrazol-1-yl)cyclopentyl)-N-methyl-1H-1,2,4-triazole-1-carboxamide] the IC50 was at most 1 µM.
`CN(C(=O)n1cncn1)C1CCCCC(n2nc(-c3ccc(Oc4ccccc4)cc3)c3c(N)ncnc32)C1` (centres unmarked) [Compound 314, N-(3-(4-amino-3-(4-phenoxyphenyl)-1H-pyrazolo[3,4-d]pyrimidin-1-yl)cycloheptyl)-N-methyl-1H-1,2,4-triazole-1-carboxamide] gave an IC50 of at most 1 µM.
